Tests used:
DENV-2 16681 strain = test: microbe, parasite or virus in culture; format: cell-based, Dengue virus; conditions: for EC50: DENV-2 16681 eGFP, Vero cells, MOI 0.5, 3 days; for SI: SI=CC50/EC50, DENV-2 antiviral assay
DENV-1 strain TC974#666 = test: Tetravalent RT-qPCR assay, serotype 1; format: cell-based, Dengue virus; conditions: RT-qPCR serotype 1 TC974#666, Vero cells
Method: (§1) The antiviral activity of the compounds of the invention was tested against DENV-1 strain TC974#666 (NCPV), DENV-2 strain 16681, DENV-3 strain H87 (NCPV) and DENV-4 strain H241 (NCPV) in a RT-qPCR assay. Therefore, Vero cells were infected with either DENV-1, or -2, or -3, or -4 in the presence or absence of test compounds. At day 3 post-infection, the cells were lysed and cell lysates were used to prepare cDNA of both a viral target (the 3′UTR of DENV; Table 2) and a cellular reference gene (β-actin, Table 2). Subsequently, a duplex real time PCR was performed on a Lightcycler480 instrument. The generated Cp value is inversely proportional to the amount of RNA expression of these targets. Inhibition of DENV replication by a test compound results in a shift of Cp's for the 3′UTR gene. On the other hand, if a test compound is toxic to the cells, a similar effect on β-actin expression will be observed. The comparative ΔΔCp method is used to calculate ECs50, which is based on the relative gene expression of the target gene (3′UTR) normalized with the cellular housekeeping gene (β-actin). In addition, CC50 values are determined based on the Cp values acquired for the housekeeping gene β-actin.
(§2) The culture medium consisted of minimal essential medium supplemented with 2% of heat-inactivated fetal calf serum, 0.04% gentamycin (50 mg/mL) and 2 mM of L-glutamine. Vero cells, obtained from ECACC, were suspended in culture medium and 75 μL/well was added in 96-well plates (10000 cells/well), which already contain the antiviral compounds. […] In addition, each plate contains wells which are assigned as virus controls (containing cells and virus in the absence of compound) and cell controls (containing cells in the absence of virus and compound). Once the cells were added in the plates, the plates were incubated in a fully humidified incubator (37° C., 5% CO2) until the next day. Dengue viruses serotype-1, 2, 3 and 4 were diluted in order to obtain a Cp of ˜22-24 in the assay. Therefore, 25 μL of virus suspension was added to all the wells containing test compound and to the wells assigned as virus control. In parallel, 25 μL of culture medium was added to the cell controls. Next, the plates were incubated for 3 days in a fully humidified incubator (37° C., 5% CO2). After 3 days, the supernatant was removed from the wells and the cells were washed twice with ice-cold PBS (˜100 μL). The cell pellets within the 96-well plates were stored at −80° C. for at least 1 day. Next, RNA was extracted using the Cells-to-CT™ lysis kit, according to the manufacturer's guideline (Life Technologies). The cell lysates can be stored at −80C or immediately used in the reverse transcription step.
(§3) In preparation of the reverse transcription step, mix A (table 3A) was prepared and 7.57 μL/well was dispensed in a 96-well plate. After addition of 5 μL of the cell lysates, a five minute denaturation step at 75° C. was performed (table 3B). Afterwards, 7.43 μL of mix B was added (table 3C) and the reverse transcription step was initiated (table 3D) to generate cDNA.
(§4) Finally, a RT-qPCR mix was prepared, mix C (table 4A), and 22.02 μL/well was dispensed in 96-well LightCycler qPCR plates to which 3 μL of cDNA was added and the qPCR was performed according to the conditions in table 4B on a LightCycler 480.
(§5) Using the LightCycler software and an in-house LIMS system, dose response curves for each compound were calculated and the half maximal effective concentration (EC50) and the half maximal cytotoxic concentration (CC50) were determined (Tables 5-8).

DENV-4 strain H241 = test: Tetravalent RT-qPCR assay, serotype 4; format: cell-based, Dengue virus; conditions: RT-qPCR serotype 4 H241, Vero cells
Method: as §1, §2, §3, §4, §5

Vero cells = conditions: African green monkey
DENV-3 strain H87 = test: Tetravalent RT-qPCR assay, serotype 3; format: cell-based, Dengue virus; conditions: RT-qPCR serotype 3 H87, Vero cells
Method: as §1, §2, §3, §4, §5

DENV-2 strain 16681 = test: Tetravalent RT-qPCR assay, serotype 2; format: cell-based, Dengue virus; conditions: RT-qPCR serotype 2 16681, Vero cells
Method: as §1, §2, §3, §4, §5

Row | SMILES | EC50 (DENV-2 16681 strain) | SI (DENV-2 16681 strain) | EC50 (DENV-1 strain TC974#666) | EC50 (DENV-4 strain H241) | CC50 (Vero cells) | EC50 (DENV-3 strain H87) | EC50 (DENV-2 strain 16681) | EC50 (DENV-1 strain TC974#666; Dengue virus, DENV1, Vero) | EC50 (DENV-4 strain H241; Dengue virus, DENV4, Vero) | EC50 (DENV-3 strain H87; Dengue virus, DENV3, Vero) | EC50 (DENV-2 strain 16681; Dengue virus, DENV2, Vero)
1 | COc1cc(NC(C(=O)N2CCc3ccc(OC(F)(F)F)cc32)c2ccc(Cl)cc2)cc(OCC(C)CC(=O)O)c1 (single isomer, unassigned) [Compound 4D] | 0.17 nM | 81200 | 0.23 nM | 26 nM | 13000 nM | 2.3 nM | 0.13 nM | – | – | – | –
2 | COc1cc(NC(C(=O)N2CCc3ccc(OC(F)(F)F)cc32)c2ccc(Cl)cc2OC)cc(OCCC(C)C(=O)O)c1 (single isomer, unassigned) [Compound 17D] | 0.12 nM | >9720 | 0.21 nM | 15 nM | 14000 nM | 2.7 nM | 0.1 nM | – | – | – | –
3 | COc1cc(NC(C(=O)N2CCc3ccc(OC(F)(F)F)cc32)c2ccc(Cl)cc2)cc(OC23CC(C(=O)O)(C2)C3)c1 (single isomer, unassigned) [Compound 9B] | 0.39 nM | 32500 | – | – | 12000 nM | – | – | 0.81 nM | 36 nM | 8 nM | 0.5 nM
4 | COc1cc(NC(C(=O)N2CCc3cc(OC)c(C(F)(F)F)cc32)c2ccc(Cl)cc2)cc(OCC2CC(C(=O)O)C2)c1 (stereo not drawn) [Compound 24B] | 0.34 nM | 43100 | – | – | 12000 nM | 14 nM | – | 2.2 nM | 66 nM | – | 0.26 nM
5 | COc1cc(NC(C(=O)N2CCc3cc(OC)c(Cl)cc32)c2ccc(Cl)cc2)cc(OC2CC(C(=O)O)C2)c1 (single isomer, unassigned) [Compound 32B] | 0.081 nM | >230623 | – | – | 14000 nM | – | – | 0.11 nM | 10 nM | 0.57 nM | 0.033 nM
6 | COc1cc(NC(C(=O)N2CCc3ccc(OC(F)(F)F)cc32)c2ccc(Cl)cc2)cc(OCCC(=O)O)c1 (single isomer, unassigned) [Compound 12B] | 0.69 nM | 21500 | – | – | 14000 nM | – | – | 0.47 nM | 39 nM | 4.7 nM | 0.53 nM
7 | COc1cc(NC(C(=O)N2CCc3ccc(OC(F)(F)F)cc32)c2ccc(Cl)cc2OC)cc(OCCC(C)(C)C(=O)O)c1 (single isomer, unassigned) [Compound 18B] | 0.28 nM | 62700 | – | – | 12000 nM | – | – | 0.55 nM | 33 nM | 4.3 nM | 0.34 nM
8 | COc1cc(NC(C(=O)N2CCc3ccc(OC(F)(F)F)cc32)c2ccc(Cl)cc2OC)cc(OCC2CC2C(=O)O)c1 (stereo not drawn) [Compound 19BB] | 0.038 nM | >148612 | 0.091 nM | 6.8 nM | 8800 nM | 0.85 nM | 0.078 nM | – | – | – | –
9 | COc1cc(NC(C(=O)N2CCc3ccc(OC(F)(F)F)cc32)c2ccc(Cl)cc2)cc(OCCC(C)C(=O)O)c1 (single isomer, unassigned) [Compound 1D] | 0.23 nM | 57700 | 0.27 nM | 24 nM | 12000 nM | 3.4 nM | 0.23 nM | – | – | – | –
10 | COc1cc(NC(C(=O)N2CCc3ccc(OC(F)(F)F)cc32)c2ccc(Cl)cc2)cc(OCC2CC(C(=O)O)C2)c1 (stereo not drawn) [Compound 11B] | 0.11 nM | 118692 | 0.2 nM | 17 nM | 11000 nM | 1.8 nM | 0.1 nM | – | – | – | –
11 | COc1cc(CCCC(=O)O)cc(NC(C(=O)N2CCc3ccc(OC(F)(F)F)cc32)c2ccc(Cl)cc2)c1 (single isomer, unassigned) [Compound 15B] | 0.45 nM | 24900 | – | – | 12000 nM | – | – | 0.24 nM | 35 nM | 2.8 nM | 0.23 nM
12 | COc1cc(NC(C(=O)N2CCc3cc(OC)c(C(F)(F)F)cc32)c2ccc(Cl)cc2)cc(OCCC(C)(C)C(=O)O)c1 (single isomer, unassigned) [Compound 21B] | 0.32 nM | 45200 | – | – | 12000 nM | – | – | 1 nM | 48 nM | 6.5 nM | 0.16 nM
13 | COc1cc(NC(C(=O)N2CCc3ccc(OC(F)(F)F)cc32)c2ccc(Cl)cc2)cc(OCC2CC2C(=O)O)c1 (stereo not drawn) [Compound 6AB] | 0.016 nM | >199223 | 0.022 nM | 2.9 nM | 12000 nM | 0.13 nM | 0.017 nM | – | – | – | –
14 | COc1cc(NC(C(=O)N2CCc3ccc(OC(F)(F)F)cc32)c2ccc(Cl)cc2OC)cc(OCCC(C)C(=O)O)c1 (single isomer, unassigned) [Compound 17C] | 0.23 nM | 39300 | – | – | 12000 nM | – | – | 0.19 nM | 16 nM | 3.6 nM | 0.11 nM
15 | COc1cc(NC(C(=O)N2CCc3cc(F)c(OC(F)(F)F)cc32)c2ccc(Cl)cc2)cc(OC2CC(C(=O)O)C2)c1 (single isomer, unassigned) [Compound 27B] | 0.022 nM | >205482 | – | – | 13000 nM | – | – | 0.013 nM | 0.81 nM | 0.091 nM | 0.014 nM
16 | COc1cc(NC(C(=O)N2CCc3ccc(OC(F)(F)F)cc32)c2ccc(Cl)cc2)cc(OCC2CC(C(=O)O)C2)c1 (stereo not drawn) [Compound 10B] | 0.11 nM | 109987 | – | – | 11000 nM | – | – | 0.27 nM | 22 nM | 2.9 nM | 0.11 nM
17 | COc1cc(NC(C(=O)N2CCc3ccc(OC(F)(F)F)cc32)c2ccc(Cl)cc2)cc(OC2CC(C(=O)O)C2)c1 (stereo not drawn) [Compound 7B] | 0.12 nM | 121027 | 0.15 nM | 13 nM | 13000 nM | 1.8 nM | 0.12 nM | – | – | – | –
18 | COc1cc(NC(C(=O)N2CCc3ccc(OC(F)(F)F)cc32)c2ccc(Cl)cc2)cc(OCC2(F)CC2C(=O)O)c1 (stereo not drawn) [Compound 28AB] | 0.68 nM | 19000 | 0.41 nM | 69 nM | 13000 nM | 5.3 nM | 0.31 nM | – | – | – | –
19 | COc1cc(NC2CC(C(=O)O)C2)cc(NC(C(=O)N2CCc3ccc(OC(F)(F)F)cc32)c2ccc(Cl)cc2)c1 (single isomer, unassigned) [Compound 33D] | 0.52 nM | 39000 | 0.48 nM | 22 nM | 18000 nM | 2.3 nM | 0.66 nM | – | – | – | –
20 | COc1cc(NC(C(=O)N2CCc3cc(OC)c(C(F)(F)F)cc32)c2ccc(Cl)cc2)cc(OCC2CC(C(=O)O)C2)c1 (stereo not drawn) [Compound 25B] | 0.28 nM | 52900 | 1.3 nM | 55 nM | 13000 nM | 6.3 nM | 0.27 nM | – | – | – | –
21 | COc1cc(NC(C(=O)N2CCc3ccc(OC(F)(F)F)cc32)c2ccc(Cl)cc2)cc(OCC2(F)CC2C(=O)O)c1 (stereo not drawn) [Compound 29AB] | 0.53 nM | 22300 | 0.23 nM | 35 nM | 12000 nM | 4.6 nM | 0.25 nM | – | – | – | –
